Results published in article PMC9516332 (Frontiers in Oncology, 2022).
Where two headings read alike, the source gives them in different places.

Test system: 134 cancer cell lines
Test: Cell viability assay (ATPlite, 72 hours), IC50 on cancer cell line panel

For `Cc1cc(Nc2ncc(Cl)c(Nc3ccccc3S(=O)(=O)C(C)C)n2)c(OC(C)C)cc1C1CCNCC1` [ceritinib], the IC50 (HEC-6, read-out: IC50 in cell proliferation assay, HEC-6 cell line (EGFR p.A289V)) was 3.25 µM, the IC50 (Homo sapiens, 769-P, read-out: IC50 in cell proliferation assay, cell line 769-P) was 2.85 µM and the IC50 (Homo sapiens, 786-0, read-out: IC50 in cell proliferation assay, cell line 786-O) was 3.28 µM. It also gave an IC50 (Homo sapiens, A 172, read-out: IC50 in cell proliferation assay, cell line A-172) of 3.94 µM, an IC50 (Homo sapiens, A204, read-out: IC50 in cell proliferation assay, cell line A-204) of 2.68 µM and an IC50 (Homo sapiens, A498, read-out: IC50 in cell proliferation assay, cell line A-498) of 4.17 µM. It also gave an IC50 (Homo sapiens, A549, read-out: IC50 in cell proliferation assay, cell line A-549) of 4.56 µM, an IC50 (Homo sapiens, A704, read-out: IC50 in cell proliferation assay, cell line A-704) of 6.19 µM and an IC50 (Homo sapiens, A-375, read-out: IC50 in cell proliferation assay, cell line A-375 (BRAF p.V600E)) of 1.61 µM. The IC50 (Homo sapiens, A-427, read-out: IC50 in cell proliferation assay, cell line A-427) was 1.45 µM, the IC50 (Homo sapiens, ACHN, read-out: IC50 in cell proliferation assay, cell line ACHN) was 4.78 µM and the IC50 (Homo sapiens, AN3-CA, read-out: IC50 in cell proliferation assay, cell line AN3-CA (FGFR2 p.N549K)) was 4.14 µM. For the same compound, the IC50 (Homo sapiens, ASPC1, read-out: IC50 in cell proliferation assay, cell line AsPC-1) was 1.34 µM, the IC50 (Homo sapiens, AU565, read-out: IC50 in cell proliferation assay, cell line AU565 (ERBB2 amplification)) was 3.26 µM and the IC50 (Homo sapiens, BT-20, read-out: IC50 in cell proliferation assay, cell line BT-20) was 6.05 µM. For the same compound, the IC50 (Homo sapiens, BT-474, read-out: IC50 in cell proliferation assay, cell line BT-474 (ERBB2 amplification)) was 3.2 µM, the IC50 (Homo sapiens, BT-549, read-out: IC50 in cell proliferation assay, cell line BT-549) was 3.83 µM and the IC50 (Homo sapiens, BXPC-3, read-out: IC50 in cell proliferation assay, cell line BxPC-3) was 1.7 µM. The IC50 (Homo sapiens, C-33-A, read-out: IC50 in cell proliferation assay, cell line C-33 A) was 4.46 µM, the IC50 (Homo sapiens, CAL-27, read-out: IC50 in cell proliferation assay, cell line CAL-27) was 3.02 µM and the IC50 (Homo sapiens, CCF-STTG1, read-out: IC50 in cell proliferation assay, cell line CCF-STTG1) was 4.5 µM. It also gave an IC50 (Homo sapiens, CCRF-CEM, read-out: IC50 in cell proliferation assay, cell line CCRF-CEM) of 3.89 µM, an IC50 (Homo sapiens, COLO 205, read-out: IC50 in cell proliferation assay, cell line COLO 205 (BRAF p.V600E)) of 1.88 µM and an IC50 (Homo sapiens, COLO-829, read-out: IC50 in cell proliferation assay, cell line COLO 829 (BRAF p.V600E)) of 3.26 µM. For the same compound, the IC50 (Homo sapiens, DLD-1, read-out: IC50 in cell proliferation assay, cell line DLD-1) was 4.38 µM, the IC50 (Homo sapiens, DU-4475, read-out: IC50 in cell proliferation assay, cell line DU4475 (BRAF p.V600E)) was 2.18 µM and the IC50 (Homo sapiens, Daoy, read-out: IC50 in cell proliferation assay, cell line Daoy) was 4.95 µM. It also gave an IC50 (Homo sapiens, DoTc2-4510, read-out: IC50 in cell proliferation assay, cell line DoTc2 4510) of 1.19 µM, an IC50 (Homo sapiens, EOL1, read-out: IC50 in cell proliferation assay, cell line EoL-1 (FIP1L1-PDGFRA)) of 0.564 µM and an IC50 (Homo sapiens, FaDu, read-out: IC50 in cell proliferation assay, cell line FaDu) of 3.25 µM. For the same compound, the IC50 (Homo sapiens, G-361, read-out: IC50 in cell proliferation assay, cell line G-361 (BRAF p.V600E)) was 1.51 µM, the IC50 (Homo sapiens, HCC827, read-out: IC50 in cell proliferation assay, cell line HCC827 (EGFR exon19del)) was 3.71 µM and the IC50 (Homo sapiens, HCC4006, read-out: IC50 in cell proliferation assay, cell line HCC4006 (EGFR exon19del)) was 2.73 µM. For the same compound, the IC50 (Homo sapiens, HCT-15, read-out: IC50 in cell proliferation assay, cell line HCT 15) was 3.81 µM, the IC50 (Homo sapiens, HCT-116, read-out: IC50 in cell proliferation assay, cell line HCT 116) was 2.72 µM and the IC50 (Homo sapiens, HEC-1, read-out: IC50 in cell proliferation assay, HEC-1 cell line) was 2.71 µM. It also gave an IC50 (Homo sapiens, HEC-1B, read-out: IC50 in cell proliferation assay, HEC-1-B cell line (EGFR p.A864V)) of 1.96 µM, an IC50 (Homo sapiens, HL-60, read-out: IC50 in cell proliferation assay, HL-60 cell line) of 0.951 µM and an IC50 (Homo sapiens, HT, read-out: IC50 in cell proliferation assay, HT cell line) of 4.74 µM. For the same compound, the IC50 (Homo sapiens, HT-1080, read-out: IC50 in cell proliferation assay, HT-1080 cell line) was 2 µM, the IC50 (Homo sapiens, Hs746T, read-out: IC50 in cell proliferation assay, Hs 746.T cell line (MET exon14skip + amplification)) was 3.34 µM and the IC50 (Homo sapiens, Hs-578T, read-out: IC50 in cell proliferation assay, Hs 578T cell line) was 4.07 µM. The IC50 (Homo sapiens, HuTu80, read-out: IC50 in cell proliferation assay, HuTu 80 cell line) was 1.67 µM, the IC50 (Homo sapiens, J82, read-out: IC50 in cell proliferation assay, J82 cell line) was 4.5 µM and the IC50 (Homo sapiens, Jurkat E6.1, read-out: IC50 in cell proliferation assay, Jurkat E6.1 cell line) was 4.07 µM. It also gave an IC50 (Homo sapiens, K562, read-out: IC50 in cell proliferation assay, K-562 cell line) of 3.97 µM, an IC50 (Homo sapiens, KATO III, read-out: IC50 in cell proliferation assay, KATO III cell line (FGFR2 amplification)) of 2.36 µM and an IC50 (Homo sapiens, KG-1, read-out: IC50 in cell proliferation assay, KG-1 cell line (FGFR1OP2-FGFR1)) of 3.85 µM. For the same compound, the IC50 (Homo sapiens, KLE, read-out: IC50 in cell proliferation assay, KLE cell line) was 3.58 µM, the IC50 (Homo sapiens, KMS-11, read-out: IC50 in cell proliferation assay, KMS-11 cell line (FGFR3 p.Y373C)) was 1.31 µM and the IC50 (Homo sapiens, KU812, read-out: IC50 in cell proliferation assay, Ku812 cell line) was 1.88 µM. It also gave an IC50 (Homo sapiens, Kasumi 1, read-out: IC50 in cell proliferation assay, Kasumi-1 cell line (KIT p.N822K)) of 1.04 µM, an IC50 (Homo sapiens, LC-2-ad, read-out: IC50 in cell proliferation assay, LC-2/ad cell line (CCDC6-RET)) of 2.02 µM and an IC50 (Homo sapiens, LNCaP-Clone-FGC, read-out: IC50 in cell proliferation assay, LNCaP clone FGC cell line) of 3.72 µM. For the same compound, the IC50 (Homo sapiens, LS174T, read-out: IC50 in cell proliferation assay, LS174T cell line) was 2 µM, the IC50 (Homo sapiens, LS-411N, read-out: IC50 in cell proliferation assay, LS411N cell line (BRAF p.V600E)) was 1.97 µM and the IC50 (Homo sapiens, LoVo, read-out: IC50 in cell proliferation assay, LoVo cell line) was 3.47 µM. It also gave an IC50 (Homo sapiens, MCF7, read-out: IC50 in cell proliferation assay, MCF-7 cell line) of 2.77 µM, an IC50 (Homo sapiens, MDA-MB-231, read-out: IC50 in cell proliferation assay, MDA-MB-231 cell line) of 0.782 µM and an IC50 (Homo sapiens, MDA-MB-453, read-out: IC50 in cell proliferation assay, MDA-MB-453 cell line) of 0.944 µM. For the same compound, the IC50 (Homo sapiens, MDA-MB-468, read-out: IC50 in cell proliferation assay, MDA-MB-468 cell line) was 4.45 µM, the IC50 (Homo sapiens, MG-63, read-out: IC50 in cell proliferation assay, MG-63 cell line) was 3.04 µM and the IC50 (Homo sapiens, MIA PaCa-2, read-out: IC50 in cell proliferation assay, MIA PaCa-2 cell line) was 2.19 µM. It also gave an IC50 (Homo sapiens, MKN-45, read-out: IC50 in cell proliferation assay, MKN45 cell line (MET amplification)) of 3.52 µM, an IC50 (Homo sapiens, MOLM-13, read-out: IC50 in cell proliferation assay, MOLM-13 cell line (FLT3 ITD)) of 0.995 µM and an IC50 (Homo sapiens, MOLT-4, read-out: IC50 in cell proliferation assay, MOLT-4 cell line) of 3.76 µM. The IC50 (Homo sapiens, MV4-11, read-out: IC50 in cell proliferation assay, MV4-11 cell line (FLT3 ITD)) was 1.23 µM.
